ChEMBL document CHEMBL3988442, “University of Dundee, Small-Polar-MMV Screening Library” (2021)
pIC50: −log10 of the molar value.

assay: In vitro enzyme assay to detect hydrolysis of chlorophenol red-beta-D-[…] directly proportional to the number of Toxoplasma stably expressing beta-galactosidase; type: functional, organism-based, Toxoplasma gondii; details: Toxoplasma gondii

Compound | pIC50
CCCc1ccc2oc(C(=O)N3CCC(O)CC3)c(C)c2c1 | < 4.30
Cc1nnc(NCc2cccc(OCC3CCCO3)c2)c(C#N)c1C (stereo unspecified) | < 4.30
O=C(COc1ccc2c(c1)CCC2)NCc1ccco1 | 4.45
CCN(Cc1nonc1C)C(=O)Cn1nc(C(F)(F)F)cc1C1CC1 | < 4.30
Cc1cc(=O)n2c3c(cc(S(=O)(=O)NC4CC4)cc13)CCC2 | < 4.30
CC(=O)N1CCN(c2ncnc3cc4c(cc23)OCCO4)CC1 | < 4.30
CCC(=O)N1CCN(c2ncnc3cc4c(cc23)OCCO4)CC1 | < 4.30
CC(C)C(=O)N1CCN(c2ncnc3cc4c(cc23)OCCO4)CC1 | < 4.30
CCC(=O)N1CCN(c2nc(C)nc3c(C)nn(C)c23)CC1 | < 4.30
Cc1nc(N2CCN(C(=O)c3ccncc3)CC2)c2c(n1)c(C)nn2C | < 4.30
CCn1cc(CN(C)S(=O)(=O)c2ccccc2)cn1 | < 4.30
Cc1cc(C(=O)NCc2ccco2)nn1C | < 4.30
Cc1ccc(CNC(=O)c2cc(C)n(C)n2)o1 | < 4.30
COCCNc1cc(C)nn2cnnc12 | < 4.30
CC(=O)Nc1ncc(S(=O)(=O)Nc2ccccc2)s1 | < 4.30
CC(=O)Nc1ncc(S(=O)(=O)Nc2cccc(F)c2)s1 | < 4.30
CC(=O)Nc1ncc(S(=O)(=O)Nc2ccccc2F)s1 | 4.51
CC(=O)Nc1ncc(S(=O)(=O)Nc2ccc(C)cc2)s1 | < 4.30
CC(=O)Nc1ncc(S(=O)(=O)Nc2cccc(C)c2)s1 | < 4.30
COc1ccc(NS(=O)(=O)c2cnc(NC(C)=O)s2)cc1 | < 4.30
CC(=O)Nc1ncc(S(=O)(=O)Nc2cccc(O)c2)s1 | < 4.30
COC(=O)c1ccc(NS(=O)(=O)c2cnc(NC(C)=O)s2)cc1 | < 4.30

Compound | pIC50
CCOCCCNc1cc(C)nn2cnnc12 | < 4.30
Cc1cc(NCCCOC(C)C)c2nncn2n1 | < 4.30
Cc1nn(C)c2c(=O)n(Cc3ccc(F)cc3)nnc12 | < 4.30
Cc1nn(C)c2c(=O)n(Cc3ccc(Cl)cc3)nnc12 | < 4.30
Cc1nn(C)c2c(=O)n(Cc3ccccc3)nnc12 | < 4.30
Cc1nc(N2CCN(c3ccccc3)CC2)c2c(n1)c(C)nn2C | < 4.30
CCn1c(NCc2cccnc2)nc2c(C)nn(C)c2c1=O | < 4.30
CCn1c(NCc2ccc(OC)cc2)nc2c(C)nn(C)c2c1=O | < 4.30
Cc1nn(C)c2c(=O)n(C(C)C)c(NCCc3ccccc3)nc12 | 4.44
CCCn1c(NCCc2ccccc2)nc2c(C)nn(C)c2c1=O | 4.50
CCCn1c(N2CCCCC2)nc2c(C)nn(C)c2c1=O | 4.46
CCn1c(SCC(N)=O)nnc1C(C)NC(=O)c1ccc(Cl)cc1 (stereo unspecified) | < 4.30
Cc1cc(C(=O)Nc2cnn(CC(F)(F)F)c2)nc(N2CCOCC2)n1 | < 4.30
Cc1cc(C(=O)Nc2cnn(CC(F)(F)F)c2)nc(N(C)C)n1 | < 4.30
Cc1c(NC(=O)c2ccc(Br)cc2)c(C(=O)N(C)C)nn1C | < 4.30
COc1ccc(C(=O)Nc2c(C(=O)N(C)C)nn(C)c2C)cc1 | < 4.30
Cn1ncc(C(=O)N2CCN(CCS(C)(=O)=O)CC2)c1Cl | < 4.30
O=C(c1ccc(-c2ccc(O)nc2)s1)N1CCCCCC1 | < 4.30
O=C(c1ccc(-c2ccc(O)nc2)s1)N1CCCCC1 | < 4.30
Cn1ncc(C(=O)N2CCN(S(C)(=O)=O)CC2)c1Cl | < 4.60
CC(C)S(=O)(=O)N1CCN(C(=O)c2cnn(C)c2Cl)CC1 | < 4.30
Cn1ncc(C(=O)N2CCN(C(=O)c3ccco3)CC2)c1Cl | < 4.30

Compound | pIC50
CCn1c(SCC(=O)O)nnc1C(C)NC(=O)c1ccc(Cl)cc1 (stereo unspecified) | < 4.30
CC(NC(=O)c1ccc(Cl)cc1)c1nnc(SCC(=O)O)n1C (stereo unspecified) | 4.53
CCc1nnc(Nc2cc(C)nc(C3CN(C(=O)C(C)C)CCO3)c2)s1 (stereo unspecified) | < 4.30
CCc1nnc(Nc2cc(C)nc(C3CCN(c4ccncn4)C3)n2)s1 (stereo unspecified) | < 4.30
CCn1ccc(-c2cc(NCCCOc3ccccc3C)nc(C)n2)n1 | 4.93
Cc1ncc(CN2CCOC(c3ccc(-c4ccccc4F)cn3)C2)s1 (stereo unspecified) | 5.02
CN1CCN(Cc2c(-c3ccco3)[nH]c3ncccc23)CC1 | < 4.30
CC(=O)N1C[C@@H](c2ccsc2)[C@@H]2CN(Cc3ccccc3C)CC[C@@H]21 | 4.72
Cc1nc(C2(NCc3c(C)nn(C)c3N3CCOCC3)CCC2)no1 | 4.60
CC(NCC(=O)Nc1ccc(N2CCCCCC2)cc1)c1cccs1 (stereo unspecified) | 4.70
OC(CNC1CCSCC1)c1cccc(OCc2ccccc2)c1 (stereo unspecified) | 4.76
CN1CCC(NCC(O)c2cccc(OCc3ccccc3)c2)CC1 (stereo unspecified) | 5.10
N#Cc1c(Cl)nsc1NCC1(c2ccccc2)CCC1 | 5.24
Cc1[nH]c2ccccc2c1-c1ccnc(N[C@@H](C)CO)n1 | 4.36
Cc1[nH]c2ccccc2c1-c1ccnc(N[C@@H](CO)C(C)C)n1 | 4.70
Cc1[nH]c2ccccc2c1-c1ccnc(N[C@H](CO)CC(C)C)n1 | < 4.30
c1cc(-c2c[nH]nc2C2CCCCC2)nc(N2CCCCCC2)n1 | 5.21
OC[C@H]1CCCN1c1nccc(-c2c[nH]nc2C2CCCCC2)n1 | 4.94
NC(=O)C1CCN(c2nccc(-c3c[nH]nc3C3CCCCC3)n2)CC1 | 5.08
Fc1ccc(-c2n[nH]cc2-c2ccnc(NCCN3CCCC3)n2)cc1 | 5.13
Cc1c(C(=O)NCC2CCN(C)C2)n(C)c2c(C)cccc12 (stereo unspecified) | < 4.30
COCCN(Cc1ccccc1Cl)c1nc(CCN)nc2ccccc12 | 4.89

Compound | pIC50
CC(C)N1CCCN(c2nc(-c3cccnc3)nc3c2cnn3C)CC1 | 5.23
CC(C)(C)c1ccc(-n2ncc3c2CCCC3N)cc1 (stereo unspecified) | 4.78
Cc1cnc(NC(=O)c2cccc(CN(C)Cc3ncccc3C)c2)s1 | 4.87
CCC(C)Oc1ccc(CNCCc2c[nH]cn2)cc1Cl (stereo unspecified) | 4.54
Cn1ccnc1CN1CCC(c2ccnc(-c3cccc(O)c3)c2)C1 (stereo unspecified) | 4.42
O=C(NCCC1=CCCCC1)c1cc(-c2ccc(O)cc2)n[nH]1 | 6.41
C[C@@H]1CN(C2CCN(c3ccccc3F)CC2)CC[C@]1(C)O | < 4.30
O=C(c1cc(=O)[nH][nH]1)N1CCCC2(CCC(=O)N(C3CCCC3)C2)C1 (stereo unspecified) | < 4.30
CC(C)c1cc(CN(C)C(=O)C(C)N2CCc3ccccc3C2)no1 (stereo unspecified) | < 4.30
CC(C)[C@@H]1CN(c2ncc(F)cn2)C[C@H]1NS(=O)(=O)N(C)C | < 4.30
CO[C@H]1[C@@H]2CC[C@H]1CN(c1nc(C)nc3ccsc13)C2 | 5.17
CNC(=O)C1(N(C)CCc2ccccc2)Cc2ccccc2C1 | 4.95
Fc1cc(Cl)cnc1N1CCCC(c2nccn2Cc2ccccn2)C1 (stereo unspecified) | < 4.30
Cc1oc(-c2ccoc2)nc1CN1CCC[C@H]1CO | 5.30
CS(=O)(=O)c1ccc(-c2cc(O)cc(CCC3CCCCN3)c2)cc1 (stereo unspecified) | 4.78
Nc1nc2c(c(NCc3nccs3)n1)CCN(CC1CCCC1)CC2 | 5.11
CCc1cnc(N2CCCC(CCC(N)=O)C2)nc1 (stereo unspecified) | < 4.30
CCCc1nc(CN(CC)C(=O)c2onc3ccccc23)no1 | < 4.30
CCCn1ncc(-c2ccnc(N[C@@H]3C[C@@H]4CC[C@H]3C4)n2)c1C | 5.25
Cc1ccc(C)c(C(=O)N2CCC3(CCC(=O)N(CC(N)=O)C3)CC2)c1 | < 4.30
O[C@@H]1CN(c2nc3ccccc3s2)CC[C@H]1c1ccc2c(c1)OCO2 | 5.28
CSCCC1c2nc[nH]c2CCN1Cc1cc(Cl)ccc1O (stereo unspecified) | 4.91

Compound | pIC50
CCc1nc(C)cn1C(=O)Nc1ccccc1 | 5.29
CC(C)=CCN1CCOC(Cn2nc(C)cc2C)C1 (stereo unspecified) | < 4.30
CN(C(=O)NCCCN1CCCC1)C1CCN(c2ccccc2)C1=O (stereo unspecified) | < 4.30
Cc1ccoc1C(=O)NC1CCN(Cc2csc3c(F)cccc23)CC1 | 5.08
CCc1cccc(OCC(=O)N2CCCC(n3cncn3)C2)c1 (stereo unspecified) | 4.55
CCc1nc2ccccc2c(=O)n1CC1(O)CCN(C(=O)COC)CC1 | < 4.30
COc1cccc(-c2noc(C3CCN(Cc4ccccc4C)C3)n2)c1 (stereo unspecified) | 5.00
COc1c(CNC2(c3noc(C)n3)CCC2)c(C)nn1C | < 4.30
CCOc1ccc2ccccc2c1CNCC1CCNCC1 | 5.19
Cc1ccc([C@]2(O)CC[C@H]3CN(Cc4cccc(Cl)c4Cl)C[C@H]32)nc1 | 5.06
Cc1nc2cc(C3CCN(Cc4cccc(F)c4F)C3)nn2c(O)c1C (stereo unspecified) | 4.98
NCc1cccc(CN2CCCC2)c1 | < 4.30
COc1c(N)c(C)nn1C | < 4.30
CC(C)COC1CCN(S(=O)(=O)N2CCCC2)CC1 | < 4.30
c1ccc(CNc2ccncc2)nc1 | < 4.30
CC(C)CC1NCCNC1=O (stereo unspecified) | < 4.30
Cc1ccc(Cl)cc1NC(=O)CN1CCNC(=O)C1 | < 4.30
Cc1cccc(NC(=O)[C@@H]2CCCN2)n1 | < 4.30
Cc1noc(CCCNC(=O)c2ccon2)n1 | < 4.30
Cc1nnc(SCCO)s1 | < 4.30
NC1CCN(C(=O)C2(c3cccc(F)c3)CC2)CC1 | < 4.30
N#Cc1ccc(-n2nccc2N)cc1 | 4.87

Compound | pIC50
CCOCC(C)OC(=O)c1ccnn1C (stereo unspecified) | < 4.30
CCS(=O)(=O)N(CCc1cccs1)CC(=O)NC | < 4.30
Cc1cc(CN)nc(N(C)C)n1 | < 4.30
N#Cc1ccc(C2NC(=O)c3cccnc3N2)cc1 (stereo unspecified) | < 4.30
Cn1ccc2ccc(NS(=O)(=O)C3CC3)cc2c1=O | < 4.30
CNC(=O)NCc1cccnc1OC1CCCC1 | < 4.30
C1CC(C2CNC2)CCO1 | < 4.30
NCCc1cc(-c2ccncc2)[nH]n1 | < 4.30
NC1CCN(C(=O)Nc2ccccc2)C1 (stereo unspecified) | < 4.30
CCc1noc(CC)c1CNC(=O)Nc1ncnn1C | < 4.30
CC(Cc1ccco1)NS(=O)(=O)N1CCOCC1 (stereo unspecified) | < 4.30
CNC(=O)[C@@H]1CSCN1c1ccc(C(F)(F)F)cn1 | < 4.30
NC(=O)C[C@@H](N)c1ccccc1Cl | < 4.30
CCNc1ccc(C(F)(F)F)cn1 | < 4.30
COc1ccccc1N1CCCC(N)C1 (stereo unspecified) | < 4.30
Cc1ccc(CN(C)C(=O)Cn2cnnn2)o1 | < 4.30
CCOc1ncccc1C(=O)NCC(C)N1CCCC1 (stereo unspecified) | < 4.30
Cc1ocnc1C(=O)Nc1ccc2c(c1)NCCC2 | < 4.30
Nc1c[nH]nc1C(=O)NCc1cccc(Cl)c1 | < 4.30
CN(CCNS(C)(=O)=O)CCSc1ccccc1 | < 4.30
Cc1cc(C)n(CC2CCNCC2)n1 | < 4.30
